In the supplement of paper PMC11208160:

assay: recombinant UMI read abundance after kanamycin selection (control-corrected) (log10(CPM+1)); higher = more efficient recombination; extreme values may be limits of the assay; sequences stand for … in AGTGCAGAGAAAATCGGCCAGTTTTCTCTGCCTGCAGTCCGCATGCCGTGGGACCCCTTGGGTTCTAACCTGTTGCCTAGATTTATGCAGCGGACTGCCTTTCTCCCAAAGTGATAAACCGG…AGGTTGGTTTCACT; site = the 11-nt donor
Procedure, shortened: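 Sequencing read counts were converted to CPM, averaged over two replicates and scaled by control-derived factors. Results are given as log10(CPM+1). The reads covered the donor–target junction of recombinant UMIs from a pooled Escherichia coli screen of donor and donor-binding-loop pairs for the IS621 bridge recombinase.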
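Also: IS621 bridge recombinase in Escherichia coli cells against a fixed T5 target plasmid.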

Row | Sequence | recombinant UMI read abundance (log10)
1 | GCTACTGCATGGACCGGTTTTCCCGGTAATCCGTATTTGCC (site GCTACAGCTGG) | 0
2 | GCTACTGCATGGACCGGTTTTCCCGGTAATCCGTATTTGCC (site GCTACCGCTGG) | 0
3 | GCTACTGCATGGACCGGTTTTCCCGGTAATCCGTATTTGCC (site GCTACGGCTGG) | 0
4 | GCTACTGCATGGACCGGTTTTCCCGGTAATCCGTATTTGCC (site GCTACTACTGG) | 1.21
5 | GCTACTGCATGGACCGGTTTTCCCGGTAATCCGTATTTGCC (site GCTACTCCTGG) | 0
6 | GCTACTGCATGGACCGGTTTTCCCGGTAATCCGTATTTGCC (site GCTACTGCTAG) | 0.00694
7 | GCTACTGCATGGACCGGTTTTCCCGGTAATCCGTATTTGCC (site GCTACTGCTCG) | 0
8 | GCTACTGCATGGACCGGTTTTCCCGGTAATCCGTATTTGCC (site GCTACTGCTGA) | 0
9 | GCTACTGCATGGACCGGTTTTCCCGGTAATCCGTATTTGCC (site GCTACTGCTGC) | 0
10 | GCTACTGCATGGACCGGTTTTCCCGGTAATCCGTATTTGCC (site GCTACTGCTGG) | 1.11
11 | GCTACTGCATGGACCGGTTTTCCCGGTAATCCGTATTTGCC (site GCTACTGCTGT) | 0
12 | GCTACTGCATGGACCGGTTTTCCCGGTAATCCGTATTTGCC (site GCTACTGCTTG) | 0.255
13 | GCTACTGCATGGACCGGTTTTCCCGGTAATCCGTATTTGCC (site GCTACTTCTGG) | 0
14 | GCTACTGCATGGACCGGTTTTCCCGGTAATCCGTATTTGCC (site GCTAGTGCTGG) | 0
15 | GCTACTGCATGGACCGGTTTTCCCGGTAATCCGTATTTGCC (site GCTATTGCTGG) | 0
16 | GCTACTGCATGGACCGGTTTTCCCGGTAATCCGTATTTGCC (site GCTCCTGCTGG) | 0
17 | GCTACTGCATGGACCGGTTTTCCCGGTAATCCGTATTTGCC (site GCTGCTGCTGG) | 0.274
18 | GCTACTGCATGGACCGGTTTTCCCGGTAATCCGTATTTGCC (site GCTTCTGCTGG) | 0.74
19 | GCTACTGCATGGACCGGTTTTCCCGGTAATCCGTATTTGCC (site GGTACTGCTGG) | 1.03
20 | GCTACTGCATGGACCGGTTTTCCCGGTAATCCGTATTTGCC (site GTTACTGCTGG) | 0.815
21 | GCTACTGCATGGACCGGTTTTCCCGGTAATCCGTATTTGCC (site TCTACTGCTGG) | 0.424
22 | GCTAGCCCATGGACCGGTTTTCCCGGTAATCCGTATTTGAT (site GCTAGCCCTAT) | 0.197
23 | GCTAGCCCATGGACCGGTTTTCCCGGTAATCCGTATTTGAT (site GCTCGCCCTAT) | 0.0134
24 | GCTAGCCCATGGACCGGTTTTCCCGGTAATCCGTATTTGAT (site GCTGGCCCTAT) | 0.00566
25 | GCTAGCCCATGGACCGGTTTTCCCGGTAATCCGTATTTGAT (site GCTTGCCCTAT) | 0.00951
26 | GCTCAGGCATGGACCGGTTTTCCCGGTAATCCGTATTTGTA (site GCTCAGGCTTA) | 1.71

Row | Sequence | recombinant UMI read abundance (log10)
27 | GCTCGAGCATGGACCGGTTTTCCCGGTAATCCGTATTTGCA (site GATCGAGCTTG) | 0.25
28 | GCTCGAGCATGGACCGGTTTTCCCGGTAATCCGTATTTGCA (site GCTCGAGCTTG) | 2.67
29 | GCTCGAGCATGGACCGGTTTTCCCGGTAATCCGTATTTGCA (site GGTCGAGCTTG) | 0.679
30 | GCTCGAGCATGGACCGGTTTTCCCGGTAATCCGTATTTGCA (site GTTCGAGCTTG) | 0.655
31 | GCTCGATCATGGACCGGTTTTCCCGGTAATCCGTATTTGCA (site GCTCGATCTTG) | 2.07
32 | GCTCGCGCATGGACCGGTTTTCCCGGTAATCCGTATTTGGT (site GCTCGCGCTAC) | 0.984
33 | GCTCGGGCATGGACCGGTTTTCCCGGTAATCCGTATTTGAG (site GCTCGGGCTCT) | 0.866
34 | GCTCTAGCATGGACCGGTTTTCCCGGTAATCCGTATTTGAC (site GCTCTAGCTGT) | 1.67
35 | GCTCTCGCATGGACCGGTTTTCCCGGTAATCCGTATTTGTT (site GCTCTCGCTAA) | 0.534
36 | GCTGAACCATGGACCGGTTTTCCCGGTAATCCGTATTTGTC (site GCTGAACCTGA) | 0
37 | GCTGCGTCATGGACCGGTTTTCCCGGTAATCCGTATTTGGT (site GCTGCGTCTAC) | 0.732
38 | GCTGCTCCATGGACCGGTTTTCCCGGTAATCCGTATTTGCT (site GCTGCTCCTAG) | 0.276
39 | GCTGCTGCATGGACCGGTTTTCCCGGTAATCCGTATTTGCC (site GCTACTGCTGG) | 0.315
40 | GCTGCTGCATGGACCGGTTTTCCCGGTAATCCGTATTTGCC (site GCTCCTGCTGG) | 0
41 | GCTGCTGCATGGACCGGTTTTCCCGGTAATCCGTATTTGCC (site GCTGCTGCTGG) | 1.18
42 | GCTGCTGCATGGACCGGTTTTCCCGGTAATCCGTATTTGCC (site GCTTCTGCTGG) | 0
43 | GCTGCTTCATGGACCGGTTTTCCCGGTAATCCGTATTTGTA (site GCTGCTTCTTA) | 0.981
44 | GCTGGAGCATGGACCGGTTTTCCCGGTAATCCGTATTTGAG (site GCTGGAGCTCT) | 1.41
45 | GCTGGCGCATGGACCGGTTTTCCCGGTAATCCGTATTTGTA (site GCTGGCGCTTA) | 0.982
46 | GCTGTTACATGGACCGGTTTTCCCGGTAATCCGTATTTGCG (site GCTGTTACTCG) | 1.48
47 | GCTTAGTCATGGACCGGTTTTCCCGGTAATCCGTATTTGTT (site GCTTAGTCTAA) | 2.37
48 | GCTTGCACATGGACCGGTTTTCCCGGTAATCCGTATTTGAT (site GCTTGCACTAT) | 1.16
49 | GCTTGCACATGGACCGGTTTTCCCGGTAATCCGTATTTGAT (site GCTTGCCCTAT) | 0.00585
50 | GCTTGCACATGGACCGGTTTTCCCGGTAATCCGTATTTGAT (site GCTTGCGCTAT) | 0.0165
51 | GCTTGCACATGGACCGGTTTTCCCGGTAATCCGTATTTGAT (site GCTTGCTCTAT) | 0.396
52 | GCTTGCCCATGGACCGGTTTTCCCGGTAATCCGTATTTGCT (site GCTTGCCCTAA) | 0.0261
